Assay results published in patent US20240173375A1, “CHEMOTACTIC AUTOPHAGY-INHIBITING PEPTIDE, COMPOSITIONS AND METHODS RELATED THERETO” (Biotempt B.V., priority 2021, published 2024).
Read-outs that look alike come from different tables or passages of the source. No end group written: not given here.

What was measured:
[1] = test system: mTOR kinases; conditions: cited from earlier work; for activators of mTOR or inhibitors of autophagy, compared with other amino acids: alone or in combination, literature search November 2011
[2] = test system: autophagy; conditions: cited from earlier work; for inhibitory effects on autophagy: human cells (Meijer et al. 2015)
[3] = test system: p38 MAPK; test: FPR-signaling assay: p38 MAPK phosphorylation in FPR-expressing cells stimulated with fMLP; assay type: cell-based
Description: (§1) Both AQGV (SEQ ID NO:11) peptide effects on p38 and PKB-mediated signalling last for the full 600 seconds tested whereas the other kinases tested were not affected throughout. […] The pathway is governing the balance between proteolysis and proteogenesis regulating cytoskeleton changes affecting vascular permeability. It is shown that an autophagy-inhibiting peptide reduces p38 MAPK kinase activated changes as well as reduces PI3K/AKT/mTOR activated induced changes in cell cytoskeleton reorganization affecting endothelial cell contraction and adverse vascular permeability. Autophagy-inhibiting peptide is useful and capable of addressing adverse vascular permeability, such as manifested by edema with vascular leakage, adverse leukocyte extravasation and hypotension, tissue injury and immune responses in human subjects.

[4] = test system: STAT3, JNK and P42/p44MAPK/ERK1,2 kinases; test: FPR-signaling assay: STAT3, JNK and P42/p44MAPK/ERK1,2 phosphorylation in FPR-expressing cells; assay type: cell-based
Description: as §1

[5] = test system: PKB (also known as AKT); test: FPR-signaling assay: PKB (AKT) phosphorylation in FPR-expressing cells stimulated with fMLP; assay type: cell-based
Description: The pathway is governing the balance between proteolysis and proteogenesis regulating cytoskeleton changes affecting vascular permeability.

[6] = cited from earlier work
[7] = 50 mg/kg twice daily i.p.; cited from earlier work
[8] = cited from earlier work; remark: listed apart in the source
[9] = target: T1, CXCR4 (Homo sapiens, UniProt P61073); conditions: cited from earlier work; for agonist behaviour in chemotaxis: CCRF-CEM cell line
T1 construct: In chemotaxis assays using the acute lymphoblastic leukemia cell line CCRF-CEM; endogenous in cells; host or cells: CCRF-CEM

[10] = test system: neutrophil; conditions: cited from earlier work
[11] = Distribution and elimination of intravenously injected [14C]-AQGV from mice; assay type: in vivo
Protocol: The present study, which was conducted by TNO Biosciences, Utrechtseweg, Netherlands, was designed to provide data on the distribution and metabolism of [14C]-AQGV (SEQ ID NO:11) (Ala-Gln-[1-^14C]Gly-Val) in male CD-1 mice following a single intravenous dose of 50 mg/kg. To this end, mice were sacrificed at 10, 30 and 60 minutes, and 6 and 24 hours after administration of radiolabeled AQGV (SEQ ID NO:11), counts in various tissues were determined, and the radioactivity present in the urine and plasma were analyzed by HPLC.

[12] = cited from earlier work; remark: listed apart in the source
[13] = test system: guinea pig skin; conditions: internal standard […]; cited from earlier work

T1 sequence (P61073 whole entry): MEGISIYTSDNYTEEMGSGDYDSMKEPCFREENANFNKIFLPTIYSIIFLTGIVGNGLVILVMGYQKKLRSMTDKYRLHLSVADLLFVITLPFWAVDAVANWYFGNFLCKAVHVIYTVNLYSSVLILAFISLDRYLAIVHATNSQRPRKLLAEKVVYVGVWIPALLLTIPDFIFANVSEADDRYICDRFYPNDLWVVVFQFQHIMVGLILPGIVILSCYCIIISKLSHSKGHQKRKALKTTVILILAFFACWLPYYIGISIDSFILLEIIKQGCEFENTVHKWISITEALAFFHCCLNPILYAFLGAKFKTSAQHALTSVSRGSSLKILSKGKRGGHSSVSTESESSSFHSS

C[C@H](N)C(=O)O [L-Alanine]
activators of mTOR or inhibitors of autophagy, compared with other amino acids [1]: more potent | Literature-based activity: autophagy [2]: DOWN | inhibitory effects on autophagy [2]: most prominent

N=C(N)NCCC[C@H](N)C(=O)O [L-Arginine]
activators of mTOR or inhibitors of autophagy, compared with other amino acids [1]: more potent | Literature-based activity: mTOR kinases [1]: activate | Literature-based activity: autophagy [2]: DOWN

NC(=O)CC[C@H](N)C(=O)O [L-Glutamine]
activators of mTOR or inhibitors of autophagy, compared with other amino acids [1]: more potent | Literature-based activity: mTOR kinases [1]: activate | Literature-based activity: autophagy [2]: DOWN | inhibitory effects on autophagy [2]: most prominent

NCC(=O)O [L-Glycine]
activators of mTOR or inhibitors of autophagy, compared with other amino acids [1]: more potent | Literature-based activity: autophagy [2]: DOWN

N[C@@H](Cc1c[nH]cn1)C(=O)O [L-Histidine]
Literature-based activity: mTOR kinases [1]: down

CC[C@H](C)[C@H](N)C(=O)O [L-Isoleucine]
activators of mTOR or inhibitors of autophagy, compared with other amino acids [1]: more potent | Literature-based activity: mTOR kinases [1]: activate | Literature-based activity: autophagy [2]: DOWN

CC(C)C[C@H](N)C(=O)O [L-Leucine]
activators of mTOR or inhibitors of autophagy, compared with other amino acids [1]: more potent | Literature-based activity: mTOR kinases [1]: activate | Literature-based activity: autophagy [2]: DOWN | inhibitory effects on autophagy [2]: most prominent

NCCCC[C@H](N)C(=O)O [L-Lysine]
activators of mTOR or inhibitors of autophagy, compared with other amino acids [1]: no or opposite effects | Literature-based activity: mTOR kinases [1]: down

CSCC[C@H](N)C(=O)O [L-Methionine]
activators of mTOR or inhibitors of autophagy, compared with other amino acids [1]: no or opposite effects | Literature-based activity: mTOR kinases [1]: partial inhibit

O=C(O)[C@@H]1CCCN1 [L-Proline]
activators of mTOR or inhibitors of autophagy, compared with other amino acids [1]: more potent | Literature-based activity: mTOR kinases [1]: activate | inhibitory effects on autophagy [2]: most prominent

C[C@@H](O)[C@H](N)C(=O)O [L-Threonine]
activators of mTOR or inhibitors of autophagy, compared with other amino acids [1]: no or opposite effects | Literature-based activity: mTOR kinases [1]: down

CC(C)[C@H](N)C(=O)O [L-Valine]
activators of mTOR or inhibitors of autophagy, compared with other amino acids [1]: more potent | Literature-based activity: mTOR kinases [1]: activate

CSCC[C@H](NC=O)C(=O)N[C@@H](CC(C)C)C(=O)N[C@@H](Cc1ccccc1)C(=O)O [fMLP, N-Formyl-L-methionyl-L-leucyl-L-phenylalanine, reference compound]
changes in phosphorylation status of p38 MAPK on FPR-activation ([3]; FPR-expressing cells, p<0.05 from 60 to 600 seconds): significant | changes in phosphorylation status of STAT3, JNK and P42/p44MAPK/ERK1,2 on FPR-activation ([4]; FPR-expressing cells): not (or not detectable) | changes in phosphorylation status of PKB (AKT) on FPR-activation ([5]; FPR-expressing cells, p<0.05 at 600 seconds): significant

N[C@@H](CCC(=O)O)C(=O)O [glutamate, L-Glutamic Acid]
activators of mTOR or inhibitors of autophagy, compared with other amino acids [1]: no or opposite effects

N[C@@H](Cc1ccccc1)C(=O)O [phenylalanine, L-Phenylalanine]
activators of mTOR or inhibitors of autophagy, compared with other amino acids [1]: no or opposite effects

N[C@@H](CO)C(=O)O [serine, L-Serine]
activators of mTOR or inhibitors of autophagy, compared with other amino acids [1]: no or opposite effects

N[C@@H](Cc1ccc(O)cc1)C(=O)O [tyrosine, L-Tyrosine]
activators of mTOR or inhibitors of autophagy, compared with other amino acids [1]: no or opposite effects

AQGV (tetrapeptide)
effect on p38/p38-MK2-HSP27 and/or PI3K/AKT/mTOR pathways ([3]; formyl-peptide related signaling): attenuate | duration of peptide effects on p38-mediated signalling ([3]; full period tested): 600 s | time at which peptide effects on p38 MAPK are detected after FPR-stimulation ([3]; peptide at 20 ng/ml or 50 ng/ml, fMLP stimulation): 30 s | peptide effect on the other kinases tested ([4]; throughout 600 seconds): not affected | time at which peptide effects on PKB(AKT) follow after FPR-stimulation ([5]; bi-phasic pattern, peptide at 20 ng/ml or 50 ng/ml, fMLP stimulation): 300 s | duration of peptide effects on PKB-mediated signalling ([5]; full period tested): 600 s | endotoxin induced increase in plasma levels of cytokines and adhesion molecule VCAM-1 ([6]; 180 mg/kg (the highest dose)): significant attenuation | fever and flu-like symptoms ([6]; the highest dose): reduced | renal function and allograft survival [7]: improved | survival ([8]; 20-50 mg/kg twice daily i.p. for four days, started 24 hours after IRI, dose dependent): markedly improved | CTGF up-regulation, marker of post-ischemic fibrosis ([8]; four weeks after IRI, renal tissue): significantly less | tubular epithelial cell proliferation ([8]; mouse, in vivo): significantly enhanced | acute tubular injury ([8]; two days after IRI): diminished

ASLW (CXCR4 superagonist) [peptide agonist of CXCR4]
agonist behaviour in chemotaxis [9]: superagonist | sensitivity to the CXCR4 antagonist AMD3100 [9]: insensitive

Acetyl-proline-glycine-proline [AcPGP]
concentration level at which the chemoattractant operates ([10]; ELR+ CXC chemokines are functional at nanomolar levels): micromolar level

Ala-Gln-[1-^14C]Gly-Val (AQGV; also: 14C label at C1 of Gly ([1-14C]Gly)) [[14C]-AQGV]
average total recovery of radioactivity ([11]; 10 minutes after dose administration): 83.2% | average total recovery of radioactivity ([11]; 30 minutes after dose administration): 70.5% | average total recovery of radioactivity ([11]; 60 minutes after dose administration): 62.9% | average total recovery of radioactivity ([11]; 6 hours after dose administration): 52.6% | average total recovery of radioactivity ([11]; 24 hours after dose administration): 50.8% | administered radioactivity excreted in feces ([11]; after 24 hours): 2.6% | administered radioactivity excreted in urine ([11]; after 24 hours): 10.2% | radioactivity in the blood, amount if all counts were in intact peptide ([11]; blood, 10 minutes after single i.v. dose of 50 mg/kg): 17.2 µg/g | concentration of "peptide" (radioactivity) ([11]; kidneys, after 10 minutes): 362 µg/g | concentration of "peptide" (radioactivity) ([11]; kidneys, after 24 hours): 61.9 µg/g | concentration of "peptide" (radioactivity) ([11]; liver, after 10 minutes): 105 µg/g | concentration of "peptide" (radioactivity) ([11]; liver, after 24 hours): 37.6 µg/g | concentration of "peptide" (radioactivity) ([11]; lung, after 10 minutes): 75.2 µg/g | time to full hydrolysis of the peptide after administration ([11]; mice): 15 min | parent compound in plasma (HPLC) ([11]; plasma, after 10 minutes, 50 mg/kg i.v.): No parent compound could be detected | concentration of "peptide" (radioactivity) ([11]; skin, after 24 hours): 37.5 µg/g | concentration of "peptide" (radioactivity) ([11]; spleen, after 10 minutes): 74.7 µg/g | concentration of "peptide" (radioactivity) ([11]; spleen, after 24 hours): 39.3 µg/g | concentration of "peptide" (radioactivity) ([11]; testis, after 10 minutes): 85.7 µg/g | concentration of "peptide" (radioactivity) ([11]; thymus, after 24 hours): 43.1 µg/g | administered radioactivity exhaled as volatiles, most likely 14C-CO2 ([11]; up to 24 hours): About 50% | parent compound in urine (HPLC) ([11]; urine, 50 mg/kg i.v.): No parent compound was detected

LQGV (tetrapeptide) [tetrapeptide, sister compound of AQGV]
survival ([12]; 5 mg/kg bodyweight combined with fluid resuscitation and antibiotics, severe cecal ligation and puncture, 30% without peptide): 70% | survival ([12]; 5 mg/kg bodyweight, first 5 days after moderate cecal ligation and puncture, 20% without): 50% | pulmonary nuclear factor-κB activation and pulmonary damage ([12]; mouse, in vivo): reduced | cytokine and E-selectin levels ([12]; peritoneal lavage fluid, lungs, to a lesser extent plasma): reduced

Pro-Gly-Pro [PGP]
potency in evoking neutrophil chemotaxis, less than AcPGP ([10]; unacetylated versus acetylated peptide): 4-7 fold

RSVM (CXCR4 partial agonist) [peptide agonist of CXCR4]
agonist behaviour in chemotaxis [9]: partial agonist | sensitivity to the CXCR4 antagonist AMD3100 [9]: insensitive

acyl-YSFKPMPLaR (YSFKPMPLXR; N-acetyl; D-Ala; chemoattractant motif; MOD_RES (1)..(1) …ON; VARIANT (9)..(9) is D-ala) [conformationally constrained decapeptide agonist analog of C5a65-74]
potency relative to unconstrained analog […] [13]: at least 10 fold
